Patent US20040156869A1, “2-substituted quinazolin-4-ylamine analogues” (Neurogen Corporation, priority 2002, published 2004)

target: human capsaicin receptor (VR1) (Homo sapiens, UniProt Q8NER1); assay: Capsaicin receptor binding assay ([3H]RTX competition, VR1-transfected HEK293 membranes)
Sequence (Q8NER1 whole entry): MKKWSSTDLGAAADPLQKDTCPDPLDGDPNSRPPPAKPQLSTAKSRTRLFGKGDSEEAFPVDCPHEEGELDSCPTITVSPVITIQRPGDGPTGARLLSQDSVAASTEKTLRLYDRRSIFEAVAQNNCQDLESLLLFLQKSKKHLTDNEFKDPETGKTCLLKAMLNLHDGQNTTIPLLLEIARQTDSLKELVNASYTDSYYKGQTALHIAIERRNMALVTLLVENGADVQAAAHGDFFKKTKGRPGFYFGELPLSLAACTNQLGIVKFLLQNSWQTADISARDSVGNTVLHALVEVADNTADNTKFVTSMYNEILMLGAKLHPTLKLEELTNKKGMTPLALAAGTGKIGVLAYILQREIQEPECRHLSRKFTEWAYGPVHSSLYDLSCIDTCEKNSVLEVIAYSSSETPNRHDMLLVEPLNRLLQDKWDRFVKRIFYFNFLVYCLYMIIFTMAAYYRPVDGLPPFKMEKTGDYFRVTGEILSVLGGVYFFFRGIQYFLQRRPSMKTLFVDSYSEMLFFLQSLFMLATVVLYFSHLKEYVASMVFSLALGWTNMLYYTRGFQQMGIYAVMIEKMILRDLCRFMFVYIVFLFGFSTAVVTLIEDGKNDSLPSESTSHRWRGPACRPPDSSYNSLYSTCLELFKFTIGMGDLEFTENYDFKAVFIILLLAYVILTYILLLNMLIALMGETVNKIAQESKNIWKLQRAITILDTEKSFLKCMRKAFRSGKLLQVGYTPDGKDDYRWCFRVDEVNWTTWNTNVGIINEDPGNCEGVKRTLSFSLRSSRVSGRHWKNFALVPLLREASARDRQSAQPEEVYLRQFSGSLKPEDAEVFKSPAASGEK

Ki, < 1000 nM:
COCc1nc(Nc2ccc(C(F)(F)F)cc2)c2ccc(-c3nccnc3Cl)nc2n1 [Compound 235, [7-(3-Chloro-pyrazin-2-yl)-2-methoxymethyl-pyrido[2,3-d]pyrimidin-4-yl]-(4-trifluoromethyl-phenyl)-amine]
COCc1nc(Nc2ccc(C(C)(C)C)cc2)c2ccc(-c3nccnc3Cl)nc2n1 [Compound 236, (4-tert-Butyl-phenyl)-[7-(3-chloro-pyrazin-2-yl)-2-methoxymethyl-pyrido[2,3-d]pyrimidin-4-yl]-amine]
COCc1nc(Nc2ccc(C(C)C)cc2)c2ccc(-c3nccnc3Cl)nc2n1 [Compound 237, [7-(3-Chloro-pyrazin-2-yl)-2-methoxymethyl-pyrido[2,3-d]pyrimidin-4-yl]-(4-isopropyl-phenyl)-amine]
COCc1nc(Nc2ccc(C(C)(C)C#N)cc2)c2ccc(-c3nccnc3Cl)nc2n1 [Compound 238, 2-{4-[7-(3-Chloro-pyrazin-2-yl)-2-methoxymethyl-pyrido[2,3-d]pyrimidin-4-ylamino]-phenyl}-2-methyl-propionitrile]
COCc1nc(Nc2ccc(S(=O)(=O)C(F)(F)F)cc2)c2ccc(-c3nccnc3Cl)nc2n1 [Compound 239, [7-(3-Chloro-pyrazin-2-yl)-2-methoxymethyl-pyrido[2,3-d]pyrimidin-4-yl]-(4-trifluoromethanesulfonyl-phenyl)-amine]
COCc1nc(Nc2ccc(C(F)F)cc2)c2ccc(-c3ncccc3C(F)(F)F)nc2n1 [Compound 240, (4-Difluoromethyl-phenyl)-[2-methoxymethyl-7-(3-trifluoromethyl-pyridin-2-yl)-pyrido[2,3-d]pyrimidin-4-yl]-amine]
CCOCc1nc(Nc2ccc(C(F)F)cc2)c2ccc(-c3ncccc3C(F)(F)F)nc2n1 [Compound 241, (4-Difluoromethyl-phenyl)-[2-ethoxymethyl-7-(3-trifluoromethyl-pyridin-2-yl)-pyrido[2,3-d]pyrimidin-4-yl]-amine]
CC(C)COCc1nc(Nc2ccc(C(F)F)cc2)c2ccc(-c3ncccc3C(F)(F)F)nc2n1 [Compound 242, (4-Difluoromethyl-phenyl)-[2-isobutoxymethyl-7-(3-trifluoromethyl-pyridin-2-yl)-pyrido[2,3-d]pyrimidin-4-yl]-amine]
COCc1nc(Nc2ccc(C(F)F)cc2)c2ccc(-c3ncccc3Cl)nc2n1 [Compound 243, [7-(3-Chloro-pyridin-2-yl)-2-methoxymethyl-pyrido[2,3-d]pyrimidin-4-yl]-(4-difluoromethyl-phenyl)-amine]
CCOCc1nc(Nc2ccc(C(F)F)cc2)c2ccc(-c3ncccc3Cl)nc2n1 [Compound 244, [7-(3-Chloro-pyridin-2-yl)-2-ethoxymethyl-pyrido[2,3-d]pyrimidin-4-yl]-(4-difluoromethyl-phenyl)-amine]
CO[C@H](C)c1nc(Nc2ccc(C(F)(F)F)cc2)c2ccc(-c3ncccc3Cl)nc2n1 [Compound 245, (R)-[7-(3-Chloro-pyridin-2-yl)-2-(1-methoxy-ethyl)-pyrido[2,3-d]pyrimidin-4-yl]-(4-trifluoromethyl-phenyl)-amine]
CN1CCC(COCc2nc(Nc3ccc(C(F)(F)F)cc3)c3ccc(-c4ncccc4C(F)(F)F)cc3n2)CC1 [Compound 247, [2-(1-Methyl-piperidin-4-ylmethoxymethyl)-7-(3-trifluoromethyl-pyridin-2-yl)-quinazolin-4-yl]-(4-trifluoromethyl-phenyl)-amine]
CC(C)COCc1nc(Nc2ccc(F)cc2)c2ccc(-c3ncccc3C(F)(F)F)nc2n1 [Compound 248, (4-Fluoro-phenyl)-[2-isobutoxymethyl-7-(3-trifluoromethyl-pyridin-2-yl)-pyrido[2,3-d]pyrimidin-4-yl]-amine]
CC(C)COCc1nc(Nc2ccc(Cl)cc2)c2ccc(-c3ncccc3C(F)(F)F)nc2n1 [Compound 249, (4-Chloro-phenyl)-[2-isobutoxymethyl-7-(3-trifluoromethyl-pyridin-2-yl)-pyrido[2,3-d]pyrimidin-4-yl]-amine]
CC(=O)c1ccc(Nc2nc(COCC(C)C)nc3nc(-c4ncccc4C(F)(F)F)ccc23)cc1 [Compound 250, 1-{4-[2-Isobutoxymethyl-7-(3-trifluoromethyl-pyridin-2-yl)-pyrido[2,3-d]pyrimidin-4-ylamino]-phenyl}-ethanone]
CCOc1ccc(Nc2nc(COCC(C)C)nc3nc(-c4ncccc4C(F)(F)F)ccc23)cc1 [Compound 251, (4-Ethoxy-phenyl)-[2-isobutoxymethyl-7-(3-trifluoromethyl-pyridin-2-yl)-pyrido[2,3-d]pyrimidin-4-yl]-amine]
CC(C)COCc1nc(Nc2ccc(F)c(F)c2)c2ccc(-c3ncccc3C(F)(F)F)nc2n1 [Compound 252, (3,4-Difluoro-phenyl)-[2-isobutoxymethyl-7-(3-trifluoromethyl-pyridin-2-yl)-pyrido[2,3-d]pyrimidin-4-yl]-amine]
Cc1cc(Nc2nc(COCC(C)C)nc3nc(-c4ncccc4C(F)(F)F)ccc23)ccc1F [Compound 253, (4-Fluoro-3-methyl-phenyl)-[2-isobutoxymethyl-7-(3-trifluoromethyl-pyridin-2-yl)-pyrido[2,3-d]pyrimidin-4-yl]-amine]
CC(C)COCc1nc(Nc2ccc(F)c(C(F)(F)F)c2)c2ccc(-c3ncccc3C(F)(F)F)nc2n1 [Compound 254, (4-Fluoro-3-trifluoromethyl-phenyl)-[2-isobutoxymethyl-7-(3-trifluoromethyl-pyridin-2-yl)-pyrido[2,3-d]pyrimidin-4-yl]-amine]
CC(C)COCc1nc(Nc2ccc(Cl)c(C(F)(F)F)c2)c2ccc(-c3ncccc3C(F)(F)F)nc2n1 [Compound 255, (4-Chloro-3-trifluoromethyl-phenyl)-[2-isobutoxymethyl-7-(3-trifluoromethyl-pyridin-2-yl)-pyrido[2,3-d]pyrimidin-4-yl]-amine]
COc1ccc(Nc2nc(COCC(C)C)nc3nc(-c4ncccc4C(F)(F)F)ccc23)cc1C(F)(F)F [Compound 256, [2-Isobutoxymethyl-7-(3-trifluoromethyl-pyridin-2-yl)-pyrido[2,3-d]pyrimidin-4-yl]-(4-methoxy-3-trifluoromethyl-phenyl)-amine]
Cc1ccc(Nc2nc(COCC(C)C)nc3nc(-c4ncccc4C(F)(F)F)ccc23)cc1C [Compound 257, (3,4-Dimethyl-phenyl)-[2-isobutoxymethyl-7-(3-trifluoromethyl-pyridin-2-yl)-pyrido[2,3-d]pyrimidin-4-yl]-amine]
COc1ccc(Nc2nc(COCC(C)C)nc3nc(-c4ncccc4C(F)(F)F)ccc23)cc1F [Compound 258, (3-Fluoro-4-methoxy-phenyl)-[2-isobutoxymethyl-7-(3-trifluoromethyl-pyridin-2-yl)-pyrido[2,3-d]pyrimidin-4-yl]-amine]
CC(C)COCc1nc(Nc2ccc(F)cc2)c2ccc(-c3ncccc3Cl)nc2n1 [Compound 259, [7-(3-Chloro-pyridin-2-yl)-2-isobutoxymethyl-pyrido[2,3-d]pyrimidin-4-yl]-(4-fluoro-phenyl)-amine]
CC(C)COCc1nc(Nc2ccc(Cl)cc2)c2ccc(-c3ncccc3Cl)nc2n1 [Compound 260, (4-Chloro-phenyl)-[7-(3-chloro-pyridin-2-yl)-2-isobutoxymethyl-pyrido[2,3-d]pyrimidin-4-yl]-amine]
CC(C)COCc1nc(Nc2ccc(C#N)cc2)c2ccc(-c3ncccc3Cl)nc2n1 [Compound 261, 4-[7-(3-Chloro-pyridin-2-yl)-2-isobutoxymethyl-pyrido[2,3-d]pyrimidin-4-ylamino]-benzonitrile]
CC(=O)c1ccc(Nc2nc(COCC(C)C)nc3nc(-c4ncccc4Cl)ccc23)cc1 [Compound 262, 1-{4-[7-(3-Chloro-pyridin-2-yl)-2-isobutoxymethyl-pyrido(2,3-d]pyrimidin-4-ylamino]-phenyl}-ethanone]
CC(C)COCc1nc(Nc2ccc(N3CCOCC3)cc2)c2ccc(-c3ncccc3Cl)nc2n1 [Compound 263, [7-(3-Chloro-pyridin-2-yl)-2-isobutoxymethyl-pyrido[2,3-d]pyrimidin-4-yl]-(4-morpholin-4-yl-phenyl)-amine]
CCOc1ccc(Nc2nc(COCC(C)C)nc3nc(-c4ncccc4Cl)ccc23)cc1 [Compound 264, [7-(3-Chloro-pyridin-2-yl)-2-isobutoxymethyl-pyrido[2,3-d]pyrimidin-4-yl]-(4-ethoxy-phenyl)-amine]
CCc1ccc(Nc2nc(COCC(C)C)nc3nc(-c4ncccc4Cl)ccc23)cc1 [Compound 265, [7-(3-Chloro-pyridin-2-yl)-2-isobutoxymethyl-pyrido[2,3-d]pyrimidin-4-yl]-(4-ethyl-phenyl)-amine]
CCCc1ccc(Nc2nc(COCC(C)C)nc3nc(-c4ncccc4Cl)ccc23)cc1 [Compound 266, [7-(3-Chloro-pyridin-2-yl)-2-isobutoxymethyl-pyrido[2,3-d]pyrimidin-4-yl]-(4-propyl-phenyl)-amine]
COC(=O)c1ccc(Nc2nc(COCC(C)C)nc3nc(-c4ncccc4Cl)ccc23)cc1 [Compound 267, 4-[7-(3-Chloro-pyridin-2-yl)-2-isobutoxymethyl-pyrido[2,3-d]pyrimidin-4-ylamino]-benzoic acid methyl ester]
CC(C)COCc1nc(Nc2ccc(F)c(F)c2)c2ccc(-c3ncccc3Cl)nc2n1 [Compound 268, [7-(3-Chloro-pyridin-2-yl)-2-isobutoxymethyl-pyrido[2,3-d]pyrimidin-4-yl]-(3,4-difluoro-phenyl)-amine]
